Measured values published in paper PMC11187542, “Identification of fragments targeting SMYD3 using highly sensitive kinetic and multiplexed biosensor-based screening” (RSC Medicinal Chemistry, 2024).
Where “and” joins values, the source holds several entries; their conditions need not be identical. Equal values may be shown once.

How the values were obtained:
SMYD3 [1] = molecular target: T1, SMYD3 (Homo sapiens, UniProt Q9H7B4); test: X-ray crystallography of SMYD3-fragment complexes (co-crystallization and soaking); design: key to XRC: success or failure of crystallization in complex with SMYD3: The success (+) or failure (−) of crystallization in complex with SMYD3; The success (+) or failure (−) of crystallization in complex with SMYD3
T1 construct: Full length recombinant SMYD3 was produced as previously reported; made in house; host or cells: E. coli BL21(DE3), in some cases Rosetta 2
T1 sequence (Q9H7B4 1-428): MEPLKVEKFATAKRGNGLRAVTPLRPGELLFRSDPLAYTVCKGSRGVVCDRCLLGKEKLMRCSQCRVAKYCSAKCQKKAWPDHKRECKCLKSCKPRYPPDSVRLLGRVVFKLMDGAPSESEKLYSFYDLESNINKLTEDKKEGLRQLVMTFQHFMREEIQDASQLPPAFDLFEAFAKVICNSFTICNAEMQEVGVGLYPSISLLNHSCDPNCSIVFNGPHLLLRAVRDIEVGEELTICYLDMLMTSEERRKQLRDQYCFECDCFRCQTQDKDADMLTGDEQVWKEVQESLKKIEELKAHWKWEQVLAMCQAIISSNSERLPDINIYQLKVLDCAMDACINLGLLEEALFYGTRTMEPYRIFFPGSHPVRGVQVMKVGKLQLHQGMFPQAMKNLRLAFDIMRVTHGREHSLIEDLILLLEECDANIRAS
Source text: To identify binding sites and binding modes, the fragment hits (Table 1) were used in both co-crystallization and soaking experiments to obtain SMYD3-fragment co-crystals for X-ray crystallographic analyses. Diffraction data of 1.6–1.9 Å maximum resolution were obtained for four fragments (Fig. 5). For data collection and refinement statistics, see ESI, ^† Table S1.
Four new sites were thus identified.
Polder (F0–Fc) maps (Fig. 5, right) were generated to establish whether the observed electron density features were more likely to represent background noise or to belong to bound fragments. These omit maps are generated upon exclusion of the ligand and surrounding solvent from the model, which aids in visualizing weak densities. […] For fragments FL01507, FL08580 and FL08619, a comparison of the maps obtained after refinement with a bound fragment with maps obtained upon their replacement with either glycerol or acetate, which were present in the crystallization or cryo-protectant solutions, respectively, was required.
8 mg mL^−1 of SMYD3 in storage buffer (TBS buffer containing 2 mM DTT) was pre-incubated for 4–8 hours with 5 mM of a respective fragment hit compound and 10% (v/v) DMSO. Subsequently, 1 μL of this solution was mixed with an equal volume of reservoir solution (100 mM Tris, 100 mM magnesium acetate, 15–17% PEG3350, pH 8.25–8.75) to create the drops for co-crystallization by hanging drop vapour diffusion performed at 20 °C. Needle-like co-crystals nucleated within 12 h of equilibration against the reservoir. In addition, crystals of SMYD3 obtained in ligand-free crystallization setups were soaked with fragment solution prior to freezing. All crystals were cryo-protected via brief immersion in reservoir solution supplemented with 10% (v/v) glycerol.
Diffraction data were collected at beamline ID23-1 of the European Synchrotron Radiation Facility (ESRF, Grenoble, France). Data were indexed, auto-processed, scaled and merged on-site using the implemented data processing routines and software. Fragment-associated electron density features were identified upon data analysis with the Pipedream system (version 1.4.0, Global Phasing Ltd, Cambridge, United Kingdom), which includes data processing with autoPROC,[14] molecular replacement with Phaser,[15] structure refinement with BUSTER version 2.10.4 (Global Phasing Ltd, Cambridge, United Kingdom), automated ligand fitting with Rhofit (Global Phasing Ltd, Cambridge, United Kingdom) and BUSTER post-refinement.[16] Refinement was done with Phenix,[17] and model building with Coot.[18] (F0–Fc) difference density maps for models, from which ligand atoms and surrounding water molecules were removed, were generated using Phenix.

SMYD3 [2] = molecular target: T1, SMYD3; test: GCI biosensor multi cycle kinetic confirmation of hits; type: binding; details: two-fold serial dilution starting at 250 μM, 15 °C, global fit 1:1 model
Protocol: Selected screening hits were also re-tested by conventional multi cycle kinetic analysis in order to confirm the interactions (some compounds were no longer available). Two variants of the GCI biosensor assay were set up, using different immobilisation levels, to allow the confirmation of hits over a broad range of affinities. […] The kinetics varied for the selected hits (ESI, ^† Fig. S2). All hits were not confirmed (ESI, ^† Fig. S1b).
All interaction kinetic experiments were conducted with a GCI–flow-based biosensor (WAVEdelta, Creoptix AG/Malvern Panalytical) and PCH WAVEchip (Creoptix AG/Malvern Panalytical) sensor chips. The sensor chips were conditioned using injections of borate buffer (10 mM sodium tetraborate pH 8.5, 1 M NaCl). The running buffer composition, if not otherwise stated, was TBS buffer (50 mM Tris, 150 mM NaCl, 0.5 mM TCEP, 0.05% Tween 20, 1% DMSO, pH 8). SMYD3 was diluted to the desired concentration in 10 mM bis-Tris (pH 7.0) and amine coupled to the sensor surface of the PCH sensor chip. The sensor chip was functionalized at 25 °C by immobilising SMYD3 with EDC and NHS (Xantec) using an injection time of 420 s and a flow rate of 10 μL min^−1. The immobilisation levels ranged from 5000 pg mm^−2 to 18 500 pg mm^−2 surface mass to enable analysis of fragments spanning a broad range of affinities. After immobilization, the surface was deactivated with a running buffer containing 50 mM Tris for 420 s. The GCI data referencing and analysis were performed using WAVEcontrol V4.5 (Creoptix AG).
Kinetic measurements with controls and fragments were performed at 15 °C. Analysis of controls and follow up of hits was done using the multi cycle kinetic (MCK) injection of a concentration series for the same time, with a two-fold serial dilution starting at 250 μM for each compound. Solvent correction was performed ranging from 0.5–1.8% DMSO. Blank samples of the running buffer, 1× TBS (50 mM Tris, 150 mM NaCl, 0.5 mM TCEP, 0.05% Tween 20, 1% DMSO, pH 8), were injected during the measurements every fifth cycle. The experimental design illustrated in Fig. 1 was used for the screening against all four surfaces. The sensorgrams were adjusted to account for solvent correction and blank subtraction. Kinetic fitting was performed with the Direct Kinetics engine of WAVEcontrol software V4.5 (Creoptix AG) with a suitable fitting model.
FL06268 Superstoichiometric and
Figure 1. Examples of sensorgrams from multicycle kinetic experiments with initial fragment hits and SMYD3. A)
Fragments for which crystal structures of the complex with SMYD3 were obtained. A global fit of the sensorgrams
crystal structures were not obtained. […]

Cn1cnc(S(N)(=O)=O)c1 [FL06268]
XRC: success or failure of crystallization in complex with SMYD3 (SMYD3 [1]; 5 mM fragment co-crystallization or soaking): (+) | Site (binding site in SMYD3 crystal structure) (SMYD3 [1]; four sites defined (1–4, Fig. 6) plus active site): both the active site (green surface) and site 2 and 2 + active | Outcome of multicycle kinetic experiment (sensorgram assessment) (SMYD3 [2]): Superstoichiometric
